The values below come from patent US20020077356A1, “Nonsteroidal antiinflammatory agents” (priority 2000, published 2002).

A word on the IC50: it is the concentration at which inhibition is half-maximal.

Read-outs that look alike come from different tables or passages of the source. Where only a bound is given, the exact number is not on record here.

In data set [1] the target is T1, glucocorticoid receptor (GR) (Homo sapiens, UniProt P04150).
T1 construct: made in house; host or cells: Sf9 insect cells infected with recombinant baculovirus; cytosol preparation
T1 sequence (P04150 1-777): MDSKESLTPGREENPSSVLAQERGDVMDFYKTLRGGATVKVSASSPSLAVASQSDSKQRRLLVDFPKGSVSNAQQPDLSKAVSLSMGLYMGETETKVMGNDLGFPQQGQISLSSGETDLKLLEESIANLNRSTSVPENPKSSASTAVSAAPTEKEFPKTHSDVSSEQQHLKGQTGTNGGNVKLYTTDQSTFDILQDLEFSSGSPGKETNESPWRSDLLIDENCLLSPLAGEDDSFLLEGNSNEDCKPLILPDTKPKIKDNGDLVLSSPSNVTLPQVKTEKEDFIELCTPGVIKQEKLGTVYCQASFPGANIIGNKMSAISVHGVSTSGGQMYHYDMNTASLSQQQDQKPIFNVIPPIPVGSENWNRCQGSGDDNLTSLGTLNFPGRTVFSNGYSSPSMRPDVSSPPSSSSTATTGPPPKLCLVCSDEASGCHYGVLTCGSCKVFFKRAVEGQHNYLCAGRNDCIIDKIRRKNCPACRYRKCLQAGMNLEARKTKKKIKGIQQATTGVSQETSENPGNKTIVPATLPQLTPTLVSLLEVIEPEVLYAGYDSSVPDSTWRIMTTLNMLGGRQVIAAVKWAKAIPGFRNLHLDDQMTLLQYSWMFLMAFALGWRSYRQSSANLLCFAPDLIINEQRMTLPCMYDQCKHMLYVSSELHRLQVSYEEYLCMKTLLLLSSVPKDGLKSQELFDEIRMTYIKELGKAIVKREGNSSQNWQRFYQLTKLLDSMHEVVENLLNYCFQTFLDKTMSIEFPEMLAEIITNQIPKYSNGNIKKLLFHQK
Put plainly: glucocorticoid receptor (GR) binding test. The settings on record: cytosol preparations of Sf9 cells infected with recombinant baculoviruses coding for the GR; 10 nM [3H]-dexamethasone. An excerpt:
The binding of substances to the glucocorticoid receptor (GR) is examined with the aid of a recombinantly produced receptor. Cytosol preparations of Sf9 cells, which had been infected with recombinant baculoviruses, which code for the GR, are used for the binding studies.

The subject of data set [2] is secretion of cytokine IL-8 in the human monocyte cell line THP-1. Description: inhibition of LPS-triggered IL-8 secretion in THP-1 cells. It counts as cell-based. More on the design: Inhibition of IL-8 Secretion Effectiveness: concentration or dose not given beside the values. The following applies: ELISA of supernatant. The protocol: The concentration of the cytokines was determined in the supernatant with use of commercially available ELISA kits.
The potency of the antiinflammatory action is determined in a cell test by the inhibition of the secretion of cytokine IL-8. […] The concentration of the cytokines was determined in the supernatant by means of commercially available ELISA kits. In this connection, the compounds of formula 1 show a high to very high potency and action in inhibition (see Table 10).
On the technique in general: ELISA stands for enzyme-linked immunosorbent assay.

Data set [3] has as its system croton oil-induced inflammation in rats and mice. Put plainly: croton oil-induced inflammation (ear edema). It counts as in vivo. The settings on record: systemically two hours before croton oil, ear weight after 16-24 hours. The method, then: The antiinflammatory actions of the compounds of general formula I were tested in the animal experiment by testing in the croton oil-induced inflammation in rats and mice (J. Exp. Med. (1995), 182, 99-108). In this connection, croton oil in ethanolic solution was administered topically to the animals' ears. The test substances were also administered topically or systemically simultaneously with or two hours before the croton oil. After 16-24 hours, the ear weight was measured as a yardstick of the inflammatory edema, the peroxidase activity was measured as a yardstick of the invasions of granuloctyes, and the elastase activity was measured as a yardstick of the invasions of neutrophilic granuloctyes. In this test, the compounds of general formula I inhibit the three above-mentioned inflammation parameters both after topical administration and after systemic administration.
The antiinflammatory actions of the compounds of general formula I were tested in the animal experiment in the croton oil-induced inflammation in rats and mice (J. Exp. Med. (1995), 182, 99-108). In this respect, croton oil in an ethanolic solution was administered topically to the ears in the animals. The test substances were systemically administered two hours before the croton oil. After 16-24 hours, the ear weight was measured as a yardstick of the inflammatory edema.

Data set [4] relates to tyrosinamino transferase (TAT). The following applies: in vivo.
Experimental: (§1) The activity of this enzyme can be determined photometrically from liver homogenates and represents a good yardstick of the undesirable metabolic actions of the glucocorticoids. To measure the TAT induction, the animals are sacrificed 8 hours after the test substances are administered, the livers are removed, and the TAT activity in the homogenate is measured.
(§2) As a parameter for the side effects of the steroid-induced catabolic metabolism, the activity of the enzyme tyrosinamino transferase (TAT) was determined from liver homogenates by photometry. The activity represents a good yardstick of the undesirable metabolic actions of the glucocorticoids. To measure the TAT induction, the animals are sacrificed 8 hours after the test substances are administered, the livers are removed, and the TAT activity in the homogenate is measured.
In data set [5] the test system is tyrosinamino transferase (TAT). Put plainly: induction of tyrosinamino transferase (TAT) activity in liver homogenates. The settings on record: liver homogenate 8 hours after administration, n-fold increase compared to untreated animals.
Experimental: as §1, §2

With `Cc1noc(=O)c2ccc(NC(=O)C(O)(CC(C)(C)c3ccc(F)cc3Cl)C(F)(F)F)cc12` (single isomer, unassigned; (+)) [Example 3, compound 9, (+)-6-[4-(2-chloro-4-fluoro-phenyl)-2-hydroxy-4-methyl-2-trifluoromethylvaleroyl]-amino-4-methyl-2,3-benzoxazin-1-one], in data set [1], the IC50 was under 0.3 nM. In data set [2], it took 65 nM to reach half-maximal inhibition (IC50) and the “Inhibition of IL-8 Secretion Effectiveness” value was found to be 51%. In addition, in data set [3], the “Edema inhibition with 3 mg/kg” value came out at 50% and the “Edema inhibition with 30 mg/kg” value came to 92%.

With `Cc1noc(=O)c2ccc(NC(=O)C(O)(CC3(c4cc(F)ccc4Cl)CCC3)C(F)(F)F)cc12` (single isomer, unassigned; (+)) [Example 16, compound 16, (+)-6-[3-{1-(2-chloro-5-fluorophenyl)-cyclobutyl}-2-hydroxy-2-trifluoromethyl-propionyl]-amino-4-methyl-2,3-benzoxazin-1-one], in data set [1], the IC50 was 0.62 nM. In addition, in data set [2], the IC50 turned out to be 10 nM and the “Inhibition of IL-8 Secretion Effectiveness” value was determined as 80%. In addition, in data set [3], the “Edema inhibition with 3 mg/kg” value is recorded as 54% and the “Edema inhibition with 30 mg/kg” value is given as 78%. Moreover, in data set [4], the “Induction factor for TAT with 3 mg/kg” value is reported as 1.3 and the “Induction factor for TAT with 30 mg/kg” value amounted to 2.0.

With `C[C@]12C=CC(=O)C=C1CC[C@@H]1[C@@H]2[C@@H](O)C[C@@]2(C)[C@H]1CC[C@]2(O)C(=O)CO` [Prednisolone, reference compound], the “Inhibition of IL-8 Secretion Effectiveness” value in data set [2] was 95%. The concentration for half-maximal inhibition (IC50) in data set [2] (Homo sapiens) turned out to be 24 nM. In data set [3], the “Edema inhibition with 3 mg/kg” value stood at 35% and the “Edema inhibition with 30 mg/kg” value is given as 84%. Moreover, the “Induction factor for TAT with 3 mg/kg” value in data set [5] (3 mg/kg) is recorded as 2.6. In addition, the “Induction factor for TAT with 30 mg/kg” value in data set [5] (30 mg/kg) is listed as 8.0.

Turning to `Cc1noc(=O)c2ccc(NC(=O)C(O)(CC3(c4ccccc4C(F)(F)F)CCC3)C(F)(F)F)cc12` (single isomer, unassigned; (+)) [Example 16, compound 26, (+)-6-[3-{1-(2-trifluoromethyl-phenyl)-cyclobutyl}-2-hydroxy-2-trifluoromethylpropionyl]-amino-4-methyl-2,3-benzoxazin-1-one], the half-maximal inhibitory concentration (IC50) in data set [1] was 16 nM. Also, in data set [2], it took 4.3 nM to reach half-maximal inhibition (IC50) and the “Inhibition of IL-8 Secretion Effectiveness” value worked out at 77%. Also, in data set [3], the “Edema inhibition with 3 mg/kg” value is listed as 11% and the “Edema inhibition with 30 mg/kg” value is 81%. In addition, in data set [4], the “Induction factor for TAT with 3 mg/kg” value was determined as 1.4 and the “Induction factor for TAT with 30 mg/kg” value is 3.7.

For `Cc1noc(=O)c2ccc(NC(=O)C(O)(CC3(c4cc(F)ccc4C(F)(F)F)CCC3)C(F)(F)F)cc12` (single isomer, unassigned; (+)) [Example 16, compound 33, (+)-6-[3-{1-(5-fluoro-2-trifluoromethyl-phenyl)-cyclobutyl}-2-hydroxy-2-trifluoromethylpropionyl]-amino-4-methyl-2,3-benzoxazin-1-one], the IC50 in data set [1] was determined as 1.1 nM. Moreover, in data set [2], the concentration for half-maximal inhibition (IC50) amounted to 30 nM and the “Inhibition of IL-8 Secretion Effectiveness” value stood at 45%. For the same compound, in data set [3], the “Edema inhibition with 3 mg/kg” value was 77% and the “Edema inhibition with 30 mg/kg” value amounted to 86%.

On to `Cc1noc(=O)c2ccc(NC(=O)C(O)(CC3(c4cc(F)ccc4Cl)CC3)C(F)(F)F)cc12` (single isomer, unassigned; (+)) [Example 16, compound 13, (+)-6-[3-{1-(2-chloro-5-fluorophenyl)-cyclopropyl}-2-hydroxy-2-trifluoromethyl-propionyl]-amino-4-methyl-2,3-benzoxazin-1-one], for which the concentration for half-maximal inhibition (IC50) in data set [1] is under 0.3 nM. In data set [2], it took 9.6 nM to reach half-maximal inhibition (IC50) and the “Inhibition of IL-8 Secretion Effectiveness” value came to 58%. In addition, in data set [3], the “Edema inhibition with 3 mg/kg” value was determined as 47% and the “Edema inhibition with 30 mg/kg” value came to 106%.
